Measurements taken from patent publication US20240148701A1, “WOULD HEALING METHODS” (The University of Sydney, priority 2021, published 2024).

Experiments:
Format in all cases: in vivo, mouse
Nox 2 = assay: Immunoblot of hind limb Nox 2 expression; details: ischemic limb, non-diabetic mice, n=4, P>0.05
Experimental: Hind limb tissue including the gastrocnemius and adductor muscles were isolated and collected at 14 or 28 days. Tissues were separated and implanted in OCT or placed in cryovials and snap-frozen in liquid nitrogen or were fixed in 10% formalin for 24-hours and then moved to 70% ethanol for storage.
Gastrocnemius samples were stored at −80° C. and then mechanically homogenized in ice-cold lysis buffer containing 150 mmol/L NaCl, 200 mmol/L Tris-HCl (pH 8.0), 1% Triton X-100, 0.5% deoxycholic acid, 0.1% SDS, N-ethylmaleimide (25 mM) and protease inhibitors (cOmplete™ EDTA-free, Roche Diagnostics). 30 μg of protein lysate was denatured and run under reducing conditions on SDS-PAGE (Bolt™ pre-cast gels and reagents, Thermofisher Scientific, Australia) and transferred onto Immobilon polyvinylidene fluoride membrane (Merck Millipore, Australia). […] Membranes were detected using an Odyssey imaging platform (Licor, USA).

nitrotyrosine = assay: Immunoblot of nitrotyrosine in hind limb tissue; details: ischemic hind limbs of type 1 diabetic mice
Experimental: Gastrocnemius samples were stored at −80° C. and then mechanically homogenized in ice-cold lysis buffer containing 150 mmol/L NaCl, 200 mmol/L Tris-HCl (pH 8.0), 1% Triton X-100, 0.5% deoxycholic acid, 0.1% SDS, N-ethylmaleimide (25 mM) and protease inhibitors (cOmplete™ EDTA-free, Roche Diagnostics). 30 μg of protein lysate was denatured and run under reducing conditions on SDS-PAGE (Bolt™ pre-cast gels and reagents, Thermofisher Scientific, Australia) and transferred onto Immobilon polyvinylidene fluoride membrane (Merck Millipore, Australia). Membranes were incubated in primary antibodies directed at determining protein expression of the following: Nox isoforms (anti-Nox 2, 1:5000; Abcam, Australia; anti-Nox-4, 1:5000; Abcam, Australia); reactive nitrogen species (anti-nitrotyrosine, 1:1000; Abcam, Australia); and both expression and phosphorylation of eNOS (anti Phospho eNOS serine 1177, 1:1000, Cell Signaling Technology, USA; anti-eNOS 1:1000, BD Biosciences, USA) and Akt (anti Phospho Akt 1:1000, Akt 1:1000, Cell Signaling Technology, USA). Specific secondary antibodies recognizing rabbit or mouse primary antibodies were used (IRDye®, Licor; 1:20,000, USA). Membranes were detected using an Odyssey imaging platform (Licor, USA).

C57BL6/J mice [1] = assay: Hind limb ischemia in type 1 diabetes model, laser Doppler perfusion
Experimental: Male C57BL6/J mice 8-10 weeks of age were obtained from Australian BioResources (Moss Vale, NSW) with 12 hour light/dark cycles and free access to water and mouse chow (Specialty Feeds, Australia). Mice were housed in groups of 2-5 in standard cages within a Physical Containment Level 2 laboratory. For in vivo angiogenesis 16 mice underwent the femoral vascular ligation model. Mice were anaesthetized with 1.5-2% isoflurane vaporized in oxygen and constant body temperature was maintained. All mice received pre-operative and 24-hour post-operative analgesia (carprofen, 5 mg/kg s.c). A small incision (˜15 mm) was made in the hind limb skin directly over the femoral vasculature. A portion of the femoral artery and vein, distal to the origin of the profunda femoris artery and proximal to the saphenous artery, were isolated and two ligations were performed using 6-0 silk sutures. The femoral artery and vein were then excised between the ligation sites 27. […] Hind limb blood flow was assessed prior to ligation (baseline) and immediately after undergoing hind limb ischemia, with subsequent imaging at day 3, 7, 10, 14, 21 and 28 post hind limb ischemia. […] The rate of reperfusion in the hind limb was calculated as a ratio of blood flow in the ischemic versus non-ischemic contralateral limb. […]

C57BL6/J mice [2] = assay: Murine hind limb ischemia model, laser Doppler perfusion (non-diabetic mice)
Experimental: Male C57BL6/J mice 8-10 weeks of age were obtained from Australian BioResources (Moss Vale, NSW) with 12 hour light/dark cycles and free access to water and mouse chow (Specialty Feeds, Australia). Mice were housed in groups of 2-5 in standard cages within a Physical Containment Level 2 laboratory. For in vivo angiogenesis 16 mice underwent the femoral vascular ligation model. Mice were anaesthetized with 1.5-2% isoflurane vaporized in oxygen and constant body temperature was maintained. All mice received pre-operative and 24-hour post-operative analgesia (carprofen, 5 mg/kg s.c). A small incision (˜15 mm) was made in the hind limb skin directly over the femoral vasculature. A portion of the femoral artery and vein, distal to the origin of the profunda femoris artery and proximal to the saphenous artery, were isolated and two ligations were performed using 6-0 silk sutures. The femoral artery and vein were then excised between the ligation sites 27. An osmotic mini-pump (model 1002 [for 14 day protocols] or model 1004 [for 28 day protocols], Alzet, USA) containing either CL 316,243 (1 mg/kg/day) or vehicle (normal saline) was then implanted via the femoral skin opening and tunneled around and positioned in the dorsal flank. The mice were randomized 1:1 to treatment protocols prior to undergoing surgery. The skin was closed with non-continuous suture (Prolene 6-0, Johnson and Johnson Medical, Australia). Hind limb blood flow was assessed prior to ligation (baseline) and immediately after undergoing hind limb ischemia, with subsequent imaging at day 3, 7, 10, 14, 21 and 28 post hind limb ischemia. Some experiments were stopped at 14 days for assessment of hind limb histology and biochemistry. Software was used to analyze the perfusion flux (Moor, UK) and investigators were blinded to the treatment groups during the period of analysis. The rate of reperfusion in the hind limb was calculated as a ratio of blood flow in the ischemic versus non-ischemic contralateral limb.

eNOS = eNOS immunoprecipitation, glutathionylation of eNOS in ischemic hind limb; details: ischemic limbs of type 1 diabetes mice
Experimental: Gastronemius protein (500 μg) extracted as above was used for co-immunoprecipitation with eNOS. Protein G dynabeads (1.5 mg/ml, 2.8 μm beads, Thermofisher Scientific, Australia) were covalently conjugated with mouse anti-eNOS antibody (BD Biosciences, 1 μg) using bis(sulfosuccinimidyl) suberate amine-amine cross-linking solution (5 mM; ThermoFisher Scientific, Australia). Beads were washed with PBS and incubated with protein lysate overnight at 4° C. IgG controls were prepared using anti-IgG antibodies conjugated to dynabeads using an identical process. Protein was eluted from beads using LDS buffer, denatured and run in non-reduced conditions on 8% Bis-Tris gels using SDS-PAGE and transferred onto polyvinylidene fluoride membrane as above. Expression of oxidized glutathione was detected using mouse anti-glutathione antibody (Virogen, 1:1000). eNOS was detected using rabbit anti-eNOS (Cell Signaling Technology, 1:1000, Australia). Odyssey detection system was used to visualize bands as above.

Structure (SMILES): C[C@H](Cc1ccc2c(c1)OC(C(=O)[O-])(C(=O)[O-])O2)NC[C@H](O)c1cccc(Cl)c1.[Na+].[Na+] [CL 316,243]
- Nox 2 hind limb protein expression (Nox 2): 1.04±0.46 fold change from vehicle
- decrease of nitrotyrosine protein levels (nitrotyrosine): > 70%
- perfusion ratio (C57BL6/J mice [1]; citrate-buffer treated (non-diabetic) mice, also 14-28 days post-ischemia): not different from vehicle controls
- greater ischemic-non-ischemic ratio (reperfusion) (C57BL6/J mice [1]; type 1 diabetes mice, from 14 days onwards, 1 mg/kg/day s.c., vs vehicle): ~20
- perfusion in the ischemic limbs (C57BL6/J mice [2]; 1 mg/kg/day subcutaneous infusion, 10-14 days following ischemic injury, vs vehicle): significantly increased perfusion
- perfusion in the non-ischemic limb (C57BL6/J mice [2]; 1 mg/kg/day systemic infusion): increased perfusion
- ischemic non-ischemic ratio of perfusion (C57BL6/J mice [2]; 14 days of hind limb ischemia, vs vehicle): no differences
- glutathionylation of eNOS (eNOS): largely abolished
